Test results from ChEMBL document CHEMBL5291721, “A preclinical secondary pharmacology resource illuminates target-adverse drug reaction associations of marketed drugs” (Nat Commun, 2023).

What was measured:
[1] = target: T1, Alpha-1A adrenergic receptor (Homo sapiens, UniProt P35348); format: functional, cell-based
T1 sequence (P35348 whole entry): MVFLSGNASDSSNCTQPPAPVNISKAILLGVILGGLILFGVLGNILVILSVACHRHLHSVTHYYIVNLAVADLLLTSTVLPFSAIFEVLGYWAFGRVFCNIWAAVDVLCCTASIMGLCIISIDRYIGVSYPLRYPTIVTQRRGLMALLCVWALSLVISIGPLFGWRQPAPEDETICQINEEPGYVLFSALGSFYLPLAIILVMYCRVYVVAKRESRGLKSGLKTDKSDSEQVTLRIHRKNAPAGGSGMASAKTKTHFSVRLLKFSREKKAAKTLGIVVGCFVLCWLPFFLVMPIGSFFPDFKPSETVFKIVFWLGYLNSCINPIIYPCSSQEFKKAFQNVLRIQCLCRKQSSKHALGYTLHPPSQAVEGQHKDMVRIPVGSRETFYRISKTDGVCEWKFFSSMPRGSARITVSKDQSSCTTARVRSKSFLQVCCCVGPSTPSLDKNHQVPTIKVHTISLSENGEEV

[2] = target: T2, 5-hydroxytryptamine receptor 2B (Homo sapiens, UniProt P41595); format: functional, cell-based
[3] = target: D(1A) dopamine receptor (Homo sapiens, UniProt P21728); format: functional, cell-based
[4] = target: T2, 5-hydroxytryptamine receptor 2B; format: functional, cell-based; remark: listed apart in the source
[5] = target: cGMP-inhibited 3',5'-cyclic phosphodiesterase 3A (Homo sapiens, UniProt Q14432); format: functional
[6] = target: Gamma-aminobutyric acid receptor subunit alpha-1 (Rattus norvegicus, UniProt P62813); format: functional
[7] = target: T3, Alpha-2A adrenergic receptor (Homo sapiens, UniProt P08913); format: functional, cell-based
T3 sequence (P08913 whole entry): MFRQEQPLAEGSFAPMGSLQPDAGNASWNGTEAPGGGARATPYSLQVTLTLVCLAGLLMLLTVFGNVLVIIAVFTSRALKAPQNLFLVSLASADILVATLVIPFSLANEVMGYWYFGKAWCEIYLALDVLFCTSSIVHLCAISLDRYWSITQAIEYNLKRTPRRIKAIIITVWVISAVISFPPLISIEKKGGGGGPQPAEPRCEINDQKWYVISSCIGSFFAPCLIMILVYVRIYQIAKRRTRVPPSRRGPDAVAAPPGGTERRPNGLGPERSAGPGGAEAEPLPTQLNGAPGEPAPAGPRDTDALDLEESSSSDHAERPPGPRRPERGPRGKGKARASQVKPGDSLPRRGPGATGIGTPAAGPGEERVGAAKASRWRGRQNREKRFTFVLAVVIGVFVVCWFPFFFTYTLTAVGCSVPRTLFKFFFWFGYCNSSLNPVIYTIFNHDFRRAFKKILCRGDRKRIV

[8] = target: D(3) dopamine receptor (Homo sapiens, UniProt P35462)
[9] = target: Adenosine receptor A2a (Homo sapiens, UniProt P29274)
[10] = target: T4, Muscarinic acetylcholine receptor M2 (Homo sapiens, UniProt P08172); format: functional, cell-based
T4 sequence (P08172 whole entry): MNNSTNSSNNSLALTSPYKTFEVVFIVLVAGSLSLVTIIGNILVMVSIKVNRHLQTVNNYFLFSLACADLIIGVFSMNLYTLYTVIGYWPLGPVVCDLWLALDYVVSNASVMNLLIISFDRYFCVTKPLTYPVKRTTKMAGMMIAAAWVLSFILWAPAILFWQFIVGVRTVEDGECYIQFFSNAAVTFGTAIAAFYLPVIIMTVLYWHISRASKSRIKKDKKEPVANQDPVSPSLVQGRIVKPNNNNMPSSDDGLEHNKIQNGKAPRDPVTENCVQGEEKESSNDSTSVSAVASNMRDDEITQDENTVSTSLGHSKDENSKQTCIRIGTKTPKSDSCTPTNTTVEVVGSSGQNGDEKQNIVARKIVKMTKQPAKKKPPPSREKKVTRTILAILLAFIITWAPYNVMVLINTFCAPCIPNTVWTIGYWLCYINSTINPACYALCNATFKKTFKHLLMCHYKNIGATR

[11] = target: T5, Adenosine receptor A3 (Homo sapiens, UniProt P0DMS8)
T5 sequence (P0DMS8 whole entry): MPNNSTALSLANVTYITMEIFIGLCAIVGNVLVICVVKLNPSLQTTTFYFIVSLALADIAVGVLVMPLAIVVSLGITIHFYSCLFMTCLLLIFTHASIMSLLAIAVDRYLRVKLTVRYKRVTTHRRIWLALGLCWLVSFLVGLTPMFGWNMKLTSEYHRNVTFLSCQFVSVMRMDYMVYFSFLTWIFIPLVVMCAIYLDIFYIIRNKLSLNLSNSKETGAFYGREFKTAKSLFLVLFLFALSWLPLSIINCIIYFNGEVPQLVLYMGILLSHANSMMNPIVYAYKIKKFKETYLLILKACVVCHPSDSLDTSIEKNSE

[12] = target: T4, Muscarinic acetylcholine receptor M2; format: functional, cell-based; remark: listed apart in the source
Also: assay procedure not described here.

T2 sequence (P41595 whole entry): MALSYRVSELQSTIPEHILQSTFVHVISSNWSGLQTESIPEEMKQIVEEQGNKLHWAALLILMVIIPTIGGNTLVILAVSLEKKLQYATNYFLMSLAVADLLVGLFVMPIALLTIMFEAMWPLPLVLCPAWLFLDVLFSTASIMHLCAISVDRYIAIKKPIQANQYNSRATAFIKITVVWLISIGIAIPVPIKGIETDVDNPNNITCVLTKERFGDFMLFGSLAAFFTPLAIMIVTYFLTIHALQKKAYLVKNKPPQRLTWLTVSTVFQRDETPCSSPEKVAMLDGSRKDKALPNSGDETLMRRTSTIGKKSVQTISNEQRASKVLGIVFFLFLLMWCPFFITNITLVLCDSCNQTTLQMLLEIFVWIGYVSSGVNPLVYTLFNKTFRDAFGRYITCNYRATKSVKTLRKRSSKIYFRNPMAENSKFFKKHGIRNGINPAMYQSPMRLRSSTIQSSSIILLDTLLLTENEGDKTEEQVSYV
Sequence of D(1A) dopamine receptor (P21728 whole entry): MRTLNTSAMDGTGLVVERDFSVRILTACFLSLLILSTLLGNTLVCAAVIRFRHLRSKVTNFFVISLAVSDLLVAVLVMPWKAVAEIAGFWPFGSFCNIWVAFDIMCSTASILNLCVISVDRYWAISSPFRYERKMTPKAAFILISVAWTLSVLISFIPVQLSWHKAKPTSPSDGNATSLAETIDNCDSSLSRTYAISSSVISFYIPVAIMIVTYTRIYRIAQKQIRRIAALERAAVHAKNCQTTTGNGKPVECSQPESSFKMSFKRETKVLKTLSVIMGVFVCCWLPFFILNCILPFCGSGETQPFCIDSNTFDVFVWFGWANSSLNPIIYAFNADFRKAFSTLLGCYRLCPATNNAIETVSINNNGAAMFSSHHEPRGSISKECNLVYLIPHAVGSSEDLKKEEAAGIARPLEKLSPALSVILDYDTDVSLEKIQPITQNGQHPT
Sequence of D(3) dopamine receptor (P35462 whole entry): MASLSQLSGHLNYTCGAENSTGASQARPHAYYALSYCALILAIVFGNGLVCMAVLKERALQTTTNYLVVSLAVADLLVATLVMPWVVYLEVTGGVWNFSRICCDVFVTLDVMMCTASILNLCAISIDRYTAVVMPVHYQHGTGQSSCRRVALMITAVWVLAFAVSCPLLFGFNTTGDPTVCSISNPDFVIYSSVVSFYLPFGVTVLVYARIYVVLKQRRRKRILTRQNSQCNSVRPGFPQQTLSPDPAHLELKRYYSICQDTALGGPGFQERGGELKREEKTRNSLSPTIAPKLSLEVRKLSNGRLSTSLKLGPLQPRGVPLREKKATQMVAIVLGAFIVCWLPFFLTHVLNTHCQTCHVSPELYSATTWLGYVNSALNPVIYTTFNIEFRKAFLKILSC
Sequence of Gamma-aminobutyric acid receptor subunit alpha-1 (P62813 whole entry): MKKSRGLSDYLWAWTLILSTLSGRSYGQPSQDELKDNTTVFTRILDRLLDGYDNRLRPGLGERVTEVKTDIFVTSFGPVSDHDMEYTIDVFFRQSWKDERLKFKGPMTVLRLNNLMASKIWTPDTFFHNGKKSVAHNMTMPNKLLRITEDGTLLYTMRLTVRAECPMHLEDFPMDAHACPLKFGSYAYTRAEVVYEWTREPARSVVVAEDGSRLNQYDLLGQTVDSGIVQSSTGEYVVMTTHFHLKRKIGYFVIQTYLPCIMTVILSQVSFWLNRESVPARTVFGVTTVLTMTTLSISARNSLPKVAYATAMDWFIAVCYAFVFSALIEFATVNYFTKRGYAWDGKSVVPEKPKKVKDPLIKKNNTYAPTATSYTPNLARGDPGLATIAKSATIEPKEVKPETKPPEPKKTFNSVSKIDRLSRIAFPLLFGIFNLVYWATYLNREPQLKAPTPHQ
Sequence of Adenosine receptor A2a (P29274 whole entry): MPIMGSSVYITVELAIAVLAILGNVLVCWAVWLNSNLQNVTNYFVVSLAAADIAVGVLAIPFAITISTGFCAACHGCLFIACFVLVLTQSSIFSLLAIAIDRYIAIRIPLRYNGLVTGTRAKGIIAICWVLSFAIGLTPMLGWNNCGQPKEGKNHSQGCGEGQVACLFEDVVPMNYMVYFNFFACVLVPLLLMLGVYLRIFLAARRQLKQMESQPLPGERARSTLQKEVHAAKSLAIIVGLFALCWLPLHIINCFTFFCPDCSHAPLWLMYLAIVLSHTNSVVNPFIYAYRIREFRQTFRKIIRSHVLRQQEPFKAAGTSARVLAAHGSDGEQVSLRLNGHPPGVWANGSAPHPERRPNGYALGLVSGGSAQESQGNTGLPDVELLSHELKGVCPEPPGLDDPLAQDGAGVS
Sequence of cGMP-inhibited 3',5'-cyclic phosphodiesterase 3A (Q14432 whole entry): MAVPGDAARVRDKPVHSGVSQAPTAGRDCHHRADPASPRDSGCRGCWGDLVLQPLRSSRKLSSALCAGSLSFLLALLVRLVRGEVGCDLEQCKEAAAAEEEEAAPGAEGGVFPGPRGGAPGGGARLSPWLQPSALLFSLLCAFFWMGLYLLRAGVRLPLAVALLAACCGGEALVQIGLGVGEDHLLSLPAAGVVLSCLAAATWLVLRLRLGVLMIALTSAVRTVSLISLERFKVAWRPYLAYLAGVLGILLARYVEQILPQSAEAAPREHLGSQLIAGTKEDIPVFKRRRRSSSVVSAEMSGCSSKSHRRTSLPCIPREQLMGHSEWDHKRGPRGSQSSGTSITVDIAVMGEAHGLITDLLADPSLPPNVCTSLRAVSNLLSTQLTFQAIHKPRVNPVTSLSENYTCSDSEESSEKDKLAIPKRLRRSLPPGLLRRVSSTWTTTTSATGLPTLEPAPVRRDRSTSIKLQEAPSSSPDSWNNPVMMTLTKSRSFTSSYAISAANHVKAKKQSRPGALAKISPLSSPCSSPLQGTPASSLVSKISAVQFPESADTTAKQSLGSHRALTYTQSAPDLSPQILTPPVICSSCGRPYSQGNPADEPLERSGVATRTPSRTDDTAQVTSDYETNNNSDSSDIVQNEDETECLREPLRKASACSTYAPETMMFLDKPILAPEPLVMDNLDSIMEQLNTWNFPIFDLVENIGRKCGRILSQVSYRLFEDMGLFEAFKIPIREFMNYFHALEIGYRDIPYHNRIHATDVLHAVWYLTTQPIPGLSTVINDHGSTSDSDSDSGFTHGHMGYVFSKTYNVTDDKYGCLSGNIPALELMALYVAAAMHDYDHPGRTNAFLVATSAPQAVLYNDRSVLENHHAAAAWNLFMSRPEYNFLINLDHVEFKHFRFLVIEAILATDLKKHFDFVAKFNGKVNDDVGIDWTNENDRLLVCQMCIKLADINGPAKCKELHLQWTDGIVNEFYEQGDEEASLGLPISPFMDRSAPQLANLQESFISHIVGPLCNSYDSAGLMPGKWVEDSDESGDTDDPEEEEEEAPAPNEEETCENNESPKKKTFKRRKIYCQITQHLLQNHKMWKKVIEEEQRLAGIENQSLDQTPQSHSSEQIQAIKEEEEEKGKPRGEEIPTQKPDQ

Row | AC50 [9] [µM] | AC50 [10] [µM] | AC50 [11] [µM] | AC50 [12] [µM] | Structure (SMILES) | AC50 [1] [µM] | AC50 [2] [µM] | AC50 [3] [µM] | AC50 [4] [µM] | AC50 [5] [µM] | AC50 [6] [µM] | AC50 [7] [µM] | AC50 [8] [µM]
1 | – | – | – | – | CO/N=C(\C(=O)N[C@@H]1C(=O)N2C(C(=O)OCOC(=O)C(C)(C)C)=C(C)CS[C@H]12)c1csc(N)n1 | > 30 | > 30 | > 30 | > 30 | > 30 | > 30 | > 30 | > 30
2 | > 30 | > 30 | > 30 | > 30 | NS(=O)(=O)c1cc(-c2nnn[nH]2)c(NCc2cccs2)cc1Cl [AZOSEMIDE] | > 30 | > 30 | > 30 | > 30 | 19 | > 30 | > 30 | > 30
3 | > 30 | > 30 | > 30 | > 30 | CCCC(=O)N1CCCN(c2nc(N)c3cc(OC)c(OC)cc3n2)CC1 [BUNAZOSIN] | – | > 30 | > 30 | > 30 | > 30 | > 30 | 11 | 21
4 | > 10 | – | > 10 | – | C[N+](C)(C)CCOC(N)=O [CARBAMOYLCHOLINE] | > 30 | > 30 | > 30 | > 30 | > 30 | > 10 | > 30 | > 30
5 | – | – | – | – | NS(=O)(=O)c1cc2c(cc1Cl)NC(CC1CCCC1)NS2(=O)=O (stereo not given) [CYCLOPENTHIAZIDE] | > 30 | > 30 | > 30 | > 30 | > 30 | > 30 | > 30 | > 30
6 | > 10 | > 10 | > 10 | > 10 | CN(C)[C@@H]1C(O)=C(C(N)=O)C(=O)[C@@]2(O)C(O)=C3C(=O)c4c(O)ccc(Cl)c4[C@@H](O)[C@H]3C[C@@H]12 [DEMECLOCYCLINE] | – | > 10 | > 10 | > 10 | > 30 | > 10 | > 10 | > 30
7 | – | – | – | – | N/N=c1/cc2c(n[nH]1)CCN(C(=O)c1ccccc1)C2 [ENDRALAZINE] | > 30 | > 30 | > 30 | > 30 | > 30 | > 30 | > 30 | > 30
8 | > 30 | > 10 | > 30 | > 10 | CC(=O)N[C@H]1[C@H]([C@H](O)[C@H](O)CO)OC(C(=O)O)=C[C@@H]1N=C(N)N [ZANAMIVIR] | – | > 30 | > 30 | > 30 | > 30 | > 10 | > 10 | > 30

Row | Structure (SMILES) | AC50 [9] [µM] | AC50 [10] [µM] | AC50 [11] [µM] | AC50 [12] [µM] | AC50 [1] [µM] | AC50 [2] [µM] | AC50 [3] [µM] | AC50 [4] [µM] | AC50 [5] [µM] | AC50 [6] [µM] | AC50 [7] [µM] | AC50 [8] [µM]
9 | COCC1=C(C(=O)OC(C)OC(=O)OC(C)C)N2C(=O)[C@@H](NC(=O)/C(=N\OC)c3csc(N)n3)[C@H]2SC1 (stereo not given in full) [CEFPODOXIME PROXETIL] | – | > 30 | – | > 30 | > 30 | > 30 | > 30 | > 30 | > 30 | > 30 | > 30 | > 30
10 | CN1C(=O)N(C)C2C1N(C)C(=O)N2C (stereo not given) [MEBICAR] | – | > 30 | – | > 30 | > 30 | > 30 | > 30 | – | > 30 | > 30 | > 30 | > 30
11 | CC(=O)O[C@]1(C(C)=O)CC[C@H]2[C@@H]3C[C@H](C)C4=CC(=O)CC[C@]4(C)[C@H]3CC[C@@]21C [MEDROXYPROGESTERONE ACETATE] | > 30 | – | > 30 | – | – | – | – | – | – | – | – | –
12 | Nc1ccc(/N=N/c2ccccc2)c(N)n1 [PHENAZOPYRIDINE] | – | > 30 | – | > 30 | > 30 | 24 | > 30 | > 30 | 22 | > 30 | > 30 | 3.1
